Literature values, collected in patent publication US20250257300A1, “MICROTITER-PLATE-BASED HIGH THROUGHPUT PERFUSION BIOREACTOR” (THE GEORGE WASHINGTON UNIVERSITY, priority 2022, published 2025).

Test system: Pseudomonas aeruginosa biofilms
Conditions: Pseudomonas aeruginosa biofilms growing on urinary catheters vs planktonic cells

Structure (SMILES): NC[C@H]1O[C@H](O[C@H]2[C@H](O)[C@@H](O[C@H]3O[C@H](CO)[C@@H](O)[C@H](N)[C@H]3O)[C@H](N)C[C@@H]2N)[C@H](N)C[C@@H]1O [tobramycin]
- resistance of biofilms to tobramycin relative to planktonic cells: 1000 times
